The source of these data is US20090209525A1, “ENABLING METHODS TO IDENTIFY ALLOSTERIC MODULATORS OF RECEPTOR ACTIVITY” (priority 2006, published 2009).

The target in one assay is T1, rat M1 S109A receptor (Rattus norvegicus, UniProt P08482, S109A).
T1 construct: expressed in transfected cells
T1 sequence (P08482 1-460 S109A): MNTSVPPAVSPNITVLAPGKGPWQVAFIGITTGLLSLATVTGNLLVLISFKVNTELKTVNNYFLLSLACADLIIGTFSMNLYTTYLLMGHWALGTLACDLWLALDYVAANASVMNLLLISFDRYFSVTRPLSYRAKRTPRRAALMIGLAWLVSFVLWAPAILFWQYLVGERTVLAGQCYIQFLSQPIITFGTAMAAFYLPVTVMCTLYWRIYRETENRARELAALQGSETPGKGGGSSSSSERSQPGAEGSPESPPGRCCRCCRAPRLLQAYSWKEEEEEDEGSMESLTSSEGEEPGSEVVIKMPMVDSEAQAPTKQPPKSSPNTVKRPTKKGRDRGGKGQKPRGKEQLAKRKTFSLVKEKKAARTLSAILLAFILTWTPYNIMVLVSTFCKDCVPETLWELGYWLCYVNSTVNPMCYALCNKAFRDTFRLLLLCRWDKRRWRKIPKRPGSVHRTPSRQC
Nature of the assay: R-SAT functional assay, S109A mutant. It is filed as cell-based. To be noted: Table 3; for Shift: EC50 S109A divided by EC50 wild-type; for EC50 / Eff (%): S109A; for Eff (%): maximum response, normalized. As for the experimental part: (§1) Cells are co-transfected for 18 h with DMEM containing 0.08 micrograms/ml of an expression vector for the expression of the mutant receptor and 0.3 micrograms/ml pSI-Bgal (Promega, Madison Wis.), and 0.5% v/v Polyfect (Qiagen, Valencia Calif.), as recommended by the manufacturer. On day three, the medium is replaced with DMEM containing 1% PSG, 0.5% calf serum, 2% cyto-sf3 (Kemp Biotechnologies, Frederick, Md.), and varying concentrations of the compounds to be tested. Cells are grown in a humidified atmosphere with 5% ambient CO2 for 5 days. The media is removed from the plates, and beta-galactosidase activity is measured by the addition of o-nitrophenyl -d-galactopyranoside in phosphate-buffered saline with 5% Nonidet P-40. […] The following equation is fitted to the data using GraphPad Prism software (San Diego, Calif.):
(§2) NIH-3T3 cells were grown in 96-well tissue culture plates to 70 to 80% confluence in Dulbecco's modified essential media (DMEM) supplemented with 100 units/ml penicillin, 100 micrograms/ml streptomycin, 0.3 mg/ml L-glutamine (1% PSG, GIBCO) and 10% calf serum (Sigma-Aldrich). Cells were transfected for 18 h with DMEM containing 0.08 micrograms/ml receptor DNA and 0.3 micrograms/ml pSI-Bgal (Promega, Madison Wis.), 0.5% v/v Polyfect (Qiagen, Valencia Calif.). Medium was replaced with DMEM containing 1% PSG, 0.5% calf serum, 2% cyto-sf3 (Kemp Biotechnologies, Frederick, Md.), and varying concentrations of ligand. […] Cells were grown in a humidified atmosphere with 5% ambient CO2 for 5 days. Medium was removed from the plates, and beta-galactosidase activity was measured by the addition of o-nitrophenyl -d-galactopyranoside in phosphate-buffered saline with 5% Nonidet P-40.

The next assay deals with T2, rat M1 D105A receptor (Rattus norvegicus, UniProt P08482, D105A).
T2 construct: expressed in transfected cells; host or cells: NIH-3T3
T2 sequence (P08482 1-460 D105A): T1 sequence (P08482 1-460 S109A) with D105A, A109S
In words: R-SAT functional assay, D105A mutant. The format is cell-based. Particulars: Table 3, maximum response. How it is done:
as §1, §2

Assay [1] concerns the target T3, rat M1 wild-type receptor (RM1) (Rattus norvegicus, UniProt P08482).
T3 construct: expressed in transfected cells
T3 sequence (P08482 1-460): T1 sequence (P08482 1-460 S109A) with A109S
Nature of the assay: ^3H-NMS radioligand binding, wild-type. Particulars: for Shift: Ki divided by Ki for wild-type (reference). How it is done: Briefly, cell homogenates are prepared from cells transiently or stably expressing wild type or mutant receptors. For transiently transfected cells, HEK cells are transfected with receptor of interest and cells harvested 48 hours post transfection. Cells expressing the receptor, stably or transiently, are harvested using phosphate buffered saline containing 5 mM EDTA, cells centrifuged at low speed and pellet re-suspended in binding buffer. Cell suspension is polytroned and centrifuged at 15,000×g. The pellet is resuspended in binding buffer and centrifugation repeated two more times. The washed cell homogenates are used for the competition binding assays. Competition binding assays are carried out in the presence of fixed amount of cell homogenate, fixed concentration of radioactively labeled orthosteric or allosteric ligand and varying concentrations of the cal under study using appropriate buffer. Incubations are carried out at room temperature for 2 hours. Incubations are terminated by filtration onto GF/B filters using Packard cell harvester followed by 3 washes with ice-cold buffer. Radioactivity retained on the filters is quantitated using Packard Top Count using Microscint 20 scintillation fluid. […] The membranes prepared above are incubated with a labeled ligand in 25 mM sodium phosphate, 5 mM magnesium chloride, 0.01% BSA two hours at room temperature. The binding reaction is stopped by rapid filtration onto GF/B filters. […] The pKd values (pKd=−log Kd) of the labeled ligand are calculated.
Radioligand binding assays were carried out in 25 mM sodium phosphate, 5 mM magnesium chloride, 0.01% BSA. Incubations were for two hours at room temperature, and reactions were stopped by rapid filtration onto GF/B filters.

Numbering of substitutions follows the chain as printed.

For the compound `CCCCC1CCN(CCCC(=O)c2ccccc2C)CC1` [AC-42, 4-n-butyl-1-[4-(2-methylphenyl)-4-oxo-1-butyl] piperidine hydrogen chloride], on rat M1 S109A receptor, the Shift is given as 1, the EC50 was 158 nM and the “Eff (%)” value was 59 ± 5%. For the same compound, on rat M1 D105A receptor, the “Eff (%)” value is listed as “no resp”. Besides, in assay [1], the IC50 is 5010 nM and the Shift was found to be 1.

Take `CCCCC1CCN(CCCN2C(=O)COc3cc(F)ccc32)CC1` [AC-260584, 4-[3-(4-Butyl-piperidin-1-yl)-propyl]-7-fluoro-4H-benzo [1,4]oxazin-3-one]: at rat M1 S109A receptor, the Shift is 1, it took 15.8 nM to reach a half-maximal effect (EC50) and the “Eff (%)” value turned out to be 104 ± 12%. Further, on rat M1 D105A receptor, the “Eff (%)” value is reported as “no resp”. Moreover, in assay [1], the IC50 was 1260 nM and the Shift worked out at 1.

Turning to `Clc1ccc2c(c1)N=C(N1CCNCC1)c1ccccc1N2` [NDMC, 8-chloro-11-(1-piperazinyl)-5H-dibenzo [b,e] [1,4] diazepine], on rat M1 S109A receptor, the Shift is 2, the EC50 was 100 nM and the “Eff (%)” value came out at 68 ± 9%. Also, at rat M1 D105A receptor, the “Eff (%)” value was “no resp”. Besides, in assay [1], the IC50 is 158 nM and the Shift was found to be 1.

For orientation: EC50 means the concentration needed to bring the measured effect to its halfway point. A low value points to greater potency. The term IC50 denotes the point on the concentration scale where inhibition reaches its midpoint.
